Results reported in patent US20180228815A1, “NARINGENIN AND ASIATIC ACID COMBINATION TREATMENT OF CANCERS” (The Chinese University of Hong Kong, priority 2016, published 2018).
Like-named read-outs stand apart in the source and are kept apart here.

What was measured:
[1] = format: in vivo
Method: FIG. 1. Determination of a safe dosage of AA or NG in normal mice. Groups of 4 normal mice were treated with different dosages of asiatic acid (AA) or naringenin (NG) for two weeks and various parameters were measured to determine a safe dosage for the use as therapeutic dose in cancer-bearing mice. As indicated by a highlighted box, AA at 10 mg/kg and NG at 50 mg/kg was selected. Each bar represents the mean±SEM for groups of 4 mice. * p<0.05, ** p<0.01 compared to untreated mice (BLK)
A safe dosage of HLPC-purified naringenin (NG) and asiatic acid (AA) was first determined in normal mice by peritoneal injection with different dosages of AA or NG for toxicity assays and a dose of AA at 10 mg/kg body weight and NG at 50 mg//Kg body weight is selected for further examination of the therapeutic efficacy on cancer (FIG. 1). The effects of combined use of a safe dosage of naringenin (NG, 10 mg/kg) and asiatic acid (AA, 50 mg/kg) at a ratio of […] was selected and the therapeutic effect on cancer was tested in two syngeneic mouse models of invasive lung carcinoma (LLC) and melanoma (B16F10). […] Thus, the combination of NG and AA presents as a new emerging and promising therapy for tumor.

[2] = system: B16F10 tumor cells; assay: TGF-beta1-induced VEGF mRNA expression by tumor cells (real-time PCR); format: cell-based
[3] = system: B16F10 melanoma; assay: B16F10 melanoma syngeneic mouse tumor model, tumor growth; format: in vivo; settings: for tumor growth at higher dosages: dosages higher than 10 mg/kg AA or 50 mg/kg NG; for B16F10 melanoma volume and weight: monotherapy, different doses; for melanoma progression: single treatment, 10 mg/kg AA or 50 mg/kg NG
Excerpt: B16F10 melanoma syngeneic tumor model was generated in C57/Bl6 male mice (aged week 8 and 25 g body weight) via subcutaneous injection of 1×10^6 B16F10 cells. Lewis Lung Cancer syngeneic tumor model was also generated in C57/Bl6 male mice via subcutaneous injection of 2×10^6 luciferase-labeled LLC cells. When average tumor size reached 50 mm^3, mice were randomly divided into four groups respectively receiving drug administration as described below. Tumor progression was monitored by calculating tumor volume with vernier calipers as well as by bioluminescence imaging with IVIS Spectrum system (Xenogen, PerkinElmer, Inc., MA, USA). All animal experiments were carried out by a protocol approved by Animal Ethics Experimental Committee at the Chinese University of Hong Kong. Two TCM-based drugs were used in this study, including asiatic acid (95% HLPC-purified, Nanning, China) and naringenin (98% HLPC-purified, Xian, China). Both drugs were dissolved in DMSO and Tween-80 at the ratio of 9:1, which was further diluted 10 times with saline as working solution. […] Studies were carried out by a protocol approved by Animal Ethics Experimental Committee at the Chinese University of Hong Kong.

[4] = Systemic toxicity in B16F10 melanoma-bearing mice; settings: mouse, in vivo
Excerpt: FIG. 5. […] Each bar represents the mean±SEM for groups of 6 mice.

[5] = system: NK1.1+ NK cells; assay: Two-color immunofluorescence of IFN-γ+ and granzyme B+ NK cells in LLC tumor microenvironment; format: in vivo, mouse
Method: FIGS. 13A-13G. […] NK1.1+ cells (green), IFN-γ+ or granzyme B+ cells (red), DAPI (blue). Each error bar represents the mean±SEM for groups of three to four mice. * p<0.05, ** p<0.01, *** p<0.001 compared to Ctrl; ## p<0.01, ### p<0.001 as indicated. Scale bar, 100 μm. […] (FIGS. 13E, 13F) Effect of AA (10 μmol), NG ([…]), and their combination on levels of IFN-γ and granzyme B in supernatant of cultured splenic NK cells with TGF-β1 (5 ng/ml) detected by ELISA. (FIG. 13G) NK cell cytotoxicity assay with LLC as target cells at E:T ratio of 5:1, 10:1 and 20:1. Each error bar represents the mean±SEM for groups of three independent experiments. * p<0.05, ** p<0.01, *** p<0.001 compared to TGF-β1; # p<0.05, ## p<0.01, ### p<0.001 as indicated. Immunofluorescence staining was performed with 5 μm PLP fixed frozen sections of mouse tumor tissue to detect NK cell infiltration in tumor microenvironment and the protein levels of p-Smad3, Smad7, IFN-γ and granzyme B in these tumor infiltrated NK cells. Primary antibodies used for immunofluorescence staining include Alexa488 conjugated anti-mouse NK-1.1 (Biolegend, CA, USA), PE conjugated anti-mouse NKp46 (eBioscience Inc., CA, USA), anti-p-Smad2/3 (Santa Cruz Biotechnology, Santa Cruz, Calif.), anti-Smad7, anti-interferon gamma and anti-granzyme B (Abcam, MA, USA). All slides were mounted with DAPI containing mounting medium then analyzed with fluorescence microscope (Leica Microsystems, Wetzlar, Germany).

[6] = system: B16F10 melanoma cells; assay: NK cell cytotoxicity assay (LDH release); format: cell-based, mouse; settings: E:T ratio of 5:1, 10:1 and 20:1
Method: It was next assessed whether the combination therapy enhances the tumor-killing capacity of NK cells by co-culturing […] NK cells with B16F10 melanoma cells at ratio of 5:1, 10:1 and 20:1. […] B16F10 melanoma cells were harvested as target cells and bone marrow-derived NK cells treated with AA or NG for 24 hours were harvested as effector cells. Cells were thoroughly washed and seeded in 96-well plates at the effector: target (E:T) ratios of 5:1, 10:1 and 20:1. Incubated in 5% CO2 incubator at 37° C. for 6 hours then detect the LDH release of each well with CytoTox 96® Non-Radioactive Cytotoxicity Assay kit (Promega Corporation, WI, USA). Read absorbance at 490 nm and calculated the percentage of NK cell mediated cytotoxicity with the following formula.

[7] = system: p-Smad3, Smad7; assay: Western blot of p-Smad3 and Smad7 in bone marrow-derived NK cells with TGF-β1; format: cell-based, mouse; settings: 10 μM of AA, 100 μM of NG; TGF-β1 (5 ng/ml)
Method: FIGS. 14A-14C. […] (FIGS. 14A, 14B) Two-color immunofluorescence detecting NK1.1+ p-Smad3+ and NK1.1+ Smad7+ NK cells in LLC tumor microenvironment. NK1.1+ cells (green), p-Smad3+ or Smad7+ cells (red), DAPI (blue). […] Scale bar, […]. […] To further explore the mechanism of combination therapy facilitating NK cell immunity against cancer in TGF-β rich microenvironment, 10 μM of AA and 100 μM of NG (according to the molar ratio in vivo) were applied on bone marrow-derived NK cells in vitro. […] After euthanasia, bone marrow cells were isolated from C57BL/6 mice following the protocol as previously described (10). Bone marrow cells were then seeded at the density of 1×10^6 cells/ml in MEMα medium (Gibco, Thermo Fisher Scientific Inc., MA, USA) containing 10% FBS supplemented with 1 ng/ml IL-7, 10 ng/ml Flt3L, 30 ng/ml SCF, 50 ng/ml IL-15 (Peprotech, NJ, USA) and […] β-Mercaptoethanol (Gibco, Thermo Fisher Scientific Inc., MA, USA) and cultured for 4 days. Then transferred cells to MEMα medium containing 10% FBS supplemented with 50 ng/ml IL-15, 20 ng/ml IL-2 and […] β-Mercaptoethanol to induce NK cells maturation for another 3 days. Tumor tissues and cultured NK cells were lysed with ice-cold RIPA buffer, and then protein was isolated as previously described (2 6). Membranes were blocked with 5% BSA in PBS for 1 hour at room temperature before incubated with primary antibodies against Smad7, Id2, β-actin (Santa Cruz Biotechnology, Santa Cruz, Calif., USA), p-Smad3 and IRF2 (Cell signaling, MA, USA) overnight at 4° C., subsequently incubated with IRDye 800-conjugated secondary antibodies (Rockland immunochemicals, PA, USA). Target protein expression was then detected by LiCor/Odyssey infrared image system (LI-COR Biosciences, NE, USA) and analyzed with Image J software (NIH, Bethesda, Md., USA).

[8] = system: bone marrow-derived NK cells; assay: Flow cytometry of bone marrow-derived NK cell differentiation (NK1.1+ CD122+); format: cell-based, mouse; settings: for inhibitory effect of TGF-β1 on NK cell development (NK1.1+ CD122+): TGF-β1 (5 ng/ml)
Method: FIGS. 15A-15B. Combination of AA and NG attenuates TGF-β1 induced inhibition on NK cell differentiation. […] (FIG. 15B) Flow cytometry detects that the effect of AA, NG, and their combination on bone marrow-derived NK differentiation in response to TGF-β1 (5 ng/ml). Each error bar represents the mean±SEM for groups of three independent experiments. *** p<0.001 compared to TGF-β1; ### p<0.001 as indicated.
After euthanasia, bone marrow cells were isolated from C57BL/6 mice following the protocol as previously described (10). Bone marrow cells were then seeded at the density of 1×10^6 cells/ml in MEMα medium (Gibco, Thermo Fisher Scientific Inc., MA, USA) containing 10% FBS supplemented with 1 ng/ml IL-7, 10 ng/ml Flt3L, 30 ng/ml SCF, 50 ng/ml IL-15 (Peprotech, NJ, USA) and […] β-Mercaptoethanol (Gibco, Thermo Fisher Scientific Inc., MA, USA) and cultured for 4 days. Then transferred cells to MEMα medium containing 10% FBS supplemented with 50 ng/ml IL-15, 20 ng/ml IL-2 and […] β-Mercaptoethanol to induce NK cells maturation for another 3 days.
Peripheral blood NK cells and cultured NK cells were analyzed using various markers as previously described (10), including rat anti-mouse CD16/CD32 antibody (BD Pharmingen, BD Biosciences, CA, USA), APC-conjugated anti-mouse NK1.1, PE-conjugated anti-mouse NKp46, PE-conjugated anti-mouse CD122 (eBioscience Inc., CA, USA) and Alexa 488-conjugated anti-mouse/human CD11b Antibody (Biolegend, CA, USA). After immunostaining, cells were resuspended with 200 μl staining buffer and analyzed with BD Accuri™ C6 Cytometer (BD Biosciences, CA, USA).

[9] = system: Id2, IRF2; assay: Id2 and IRF2 expression in bone marrow-derived NK cells with TGF-β1 (real-time PCR, western blot); format: cell-based, mouse; settings: bone marrow-derived NK cells in vitro
Method: After euthanasia, bone marrow cells were isolated from C57BL/6 mice following the protocol as previously described (10). Bone marrow cells were then seeded at the density of 1×10^6 cells/ml in MEMα medium (Gibco, Thermo Fisher Scientific Inc., MA, USA) containing 10% FBS supplemented with 1 ng/ml IL-7, 10 ng/ml Flt3L, 30 ng/ml SCF, 50 ng/ml IL-15 (Peprotech, NJ, USA) and […] β-Mercaptoethanol (Gibco, Thermo Fisher Scientific Inc., MA, USA) and cultured for 4 days. Then transferred cells to MEMα medium containing 10% FBS supplemented with 50 ng/ml IL-15, 20 ng/ml IL-2 and […] β-Mercaptoethanol to induce NK cells maturation for another 3 days. […] Tumor tissues and cultured NK cells were lysed with ice-cold RIPA buffer, and then protein was isolated as previously described (2 6). Membranes were blocked with 5% BSA in PBS for 1 hour at room temperature before incubated with primary antibodies against Smad7, Id2, β-actin (Santa Cruz Biotechnology, Santa Cruz, Calif., USA), p-Smad3 and IRF2 (Cell signaling, MA, USA) overnight at 4° C., subsequently incubated with IRDye 800-conjugated secondary antibodies (Rockland immunochemicals, PA, USA). Target protein expression was then detected by LiCor/Odyssey infrared image system (LI-COR Biosciences, NE, USA) and analyzed with Image J software (NIH, Bethesda, Md., USA).

C[C@H]1[C@H](C)CC[C@]2(C(=O)O)CC[C@]3(C)C(=CC[C@@H]4[C@@]5(C)C[C@@H](O)[C@H](O)[C@@](C)(CO)[C@@H]5CC[C@]43C)[C@H]12 [AA, Asiatic acid]
safe dosage selected for use as therapeutic dose ([1]; mouse, in vivo, 2 weeks): 10 mg/kg | TGF-beta1-induced angiogenesis (VEGF mRNA expression) ([2]; B16F10 cultured with TGF-beta1 (2 ng/ml), AA at luM): significantly inhibit | tumor growth at higher dosages [3]: no further significant improvement | B16F10 melanoma volume and weight [3]: Dose-dependent inhibitory effect | melanoma progression [3]: effectively inhibited | systemic toxicity (peripheral white blood cell counts, serum LDH, AST and ALT, creatinine) [4]: do not cause systemic toxicity | IFN-γ-producing NK cells (IFN-γ+ NK1.1+ cells) [5]: significantly increased | granzyme B-secreting NK cells (GB+ NK1.1+ cells) [5]: significantly increased | NK cell-mediated cytotoxicity against melanoma cells [6]: increased | TGF-β1-increased phosphorylation level of Smad3 [7]: attenuated | TGF-β1-induced suppression of Smad7 expression [7]: capable of restoring | inhibitory effect of TGF-β1 on NK cell development (NK1.1+ CD122+) [8]: moderately attenuated | TGF-β1-induced suppression of IRF2 [9]: significantly reduced | TGF-β1-induced suppression of Id2 [9]: significantly reduced

O=C1CC(c2ccc(O)cc2)Oc2cc(O)cc(O)c21 (centres unmarked) [NG, 5,7-dihydroxy-2-(4-hydroxyphenyl)chroman-4-one]
safe dosage selected for use as therapeutic dose ([1]; normal mice treated for two weeks, groups of 4): 50 mg/kg | TGF-beta1-induced angiogenesis (VEGF mRNA expression), inhibition by AA with NG added ([2]; B16F10 with TGF-beta1 (2 ng/ml), NG from 0.5 to 250 uM added to AA at luM): enhanced | tumor growth at higher dosages [3]: no further significant improvement | B16F10 melanoma volume and weight [3]: Dose-dependent inhibitory effect | melanoma progression [3]: effectively inhibited | systemic toxicity (peripheral white blood cell counts, serum LDH, AST and ALT, creatinine) [4]: do not cause systemic toxicity | IFN-γ-producing NK cells (IFN-γ+ NK1.1+ cells) [5]: significantly increased | granzyme B-secreting NK cells (GB+ NK1.1+ cells) [5]: significantly increased | NK cell-mediated cytotoxicity against melanoma cells [6]: increased | TGF-β1-increased phosphorylation level of Smad3 [7]: attenuated | TGF-β1-induced suppression of Smad7 expression [7]: capable of restoring | inhibitory effect of TGF-β1 on NK cell development (NK1.1+ CD122+) [8]: moderately attenuated | TGF-β1-induced suppression of IRF2 [9]: significantly reduced | TGF-β1-induced suppression of Id2 [9]: significantly reduced

TGF-β1: cytokine added to NK cell cultures to suppress NK cell development [reference compound]
NK1.1+ CD122+ cell (immature NK cells) proportion ([8]; TGF-β1 at 5 ng/ml, 80% without TGF-β1): 11%
